The values below come from article PMC11109624, “Celastrol Ameliorates Neuronal Mitochondrial Dysfunction Induced by Intracerebral Hemorrhage via Targeting cAMP‐Activated Exchange Protein‐1” (Advanced Science, 2024).

This experiment deals with T1, cNMP-EPAC-1 (cNMP domain of EPAC-1, 149-318) (Homo sapiens, UniProt O95398).
T1 construct: gene RAPGEF3; pGEX4T1 N-terminal GST tag, removed by protease; E. coli BL21(DE3); glutathione, Ni-NTA and Superdex 75
T1 sequence (O95398 191-360): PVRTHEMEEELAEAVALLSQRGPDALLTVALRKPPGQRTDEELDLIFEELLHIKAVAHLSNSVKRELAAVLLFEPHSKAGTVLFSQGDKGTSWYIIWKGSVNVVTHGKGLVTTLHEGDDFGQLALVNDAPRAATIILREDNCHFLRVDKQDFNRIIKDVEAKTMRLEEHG
The experiment in a line: isothermal titration calorimetry (MicroCal iTC200). The experiment is classed as binding.

`CC1=C(O)C(=O)C=C2C1=CC=C1[C@@]2(C)CC[C@@]2(C)[C@@H]3C[C@](C)(C(=O)O)CC[C@]3(C)CC[C@]12C` [celastrol] gave a Kd of 1570 nM. In other words, the single-digit micromolar range.
